The record followed here is patent US8535650B2, “Stabilized reverse micelle compositions and uses thereof” (Soligenix, Inc., priority 2001, dated 2013).

A short description of series [1]: in vivo. Conditions: Sprague-Dawley, rat, sc, 0.4 mg/kg.
Experimental: Sprague-Dawley rats (approximately weighing 120 grams each) were catheterized surgically with jugular and duodenal catheters. Each group of rats, 3-5 animals per group, were given 0.4-2.4 mg/kg of LHRH either as free in solution or incorporated in micelles. As further control, several groups of animals were given a solution of free LHRH subcutaneously at a dose of 0.4 mg/kg of body weight. Blood samples were collected at 0, 20, 40, 60, 90, 120, and 240 minutes following administration of LHRH or controls. The time 0 blood collection was obtained approximately 15 minutes before administration of LHRH formulations. Plasma samples were analyzed by a competitive ELISA assay as follows. Plastic 96 well plates were coated with anti-rabbit immunoglobulins followed by addition of rabbit anti-LHRH and biotinylated-LHRH with sample dilutions. Binding of biotinylated LHRH was assayed by development with BRP-avidin and color development with TMB (tetra-methyl-benzidine). Pharmacokinetic parameters were calculated from the data using WinNonLin software (Pharsight).
Series [2] can be described thus: in vivo. Conditions: Sprague-Dawley, rat.
Experimental: Sprague-Dawley rats (approximately weighing 120 grams each) were catheterized surgically with jugular and duodenal catheters. Each group of rats, 4-5 animals per group, were given 0.4-3.6 mg/kg of leuprolide either as free in solution or incorporated in micelles. As further control, several groups of animals were given a solution of free leuprolide subcutaneously. Blood samples were collected at 0, 20, 40, 60, 90, 120, and 240 minutes following administration of leuprolide or controls. The time 0 blood collection was obtained approximately 15 minutes before administration of leuprolide formulations. The amount of leuprolide released into rat serum or leuprolide in formulation was determined by using competitive enzyme-linked immunosorbent assay (ELISA) (Peninsula Laboratories, Inc). The assay system utilizes goat anti-rabbit IgG for solid phase (microwells) immobilization. The test serum or formulation sample was allowed to react simultaneously with the coated antibody, rabbit anti-leuprolide and biotinylated leuprolide. The biotinylated leuprolide competes for the antibody binding sites with standard or the unknown sample leuprolide. After a two-hour (or overnight) incubation at room temperature, unbound biotinylated peptide was removed by washing, and streptavidin-conjugated horseradish peroxidase (SA-HRP) was added and allowed to bind the immobilized rabbit anti-leuprolide/biotinylated leuprolide complex. After washing away excess SA-HRP, 3,3′,5,5′-Tetramethylbenzidine (TMB) was added and incubated for 15 minutes, resulting in the development of a blue color. The addition of Stop Solution stops the reaction and converts the color to yellow. The intensity of the yellow color depends on the quantity of biotinylated leuprolide bound to the immobilized antibody: When more sample leuprolide competes for the limited antibody, less biotinylated leuprolide/SA-HRP can be immobilized, and less color is produced by the substrate.
A short description of series [3]: in vivo. To be noted: both, beagle, dog, sc, 0.4 mg/kg.
Experimental: Beagle dogs (3 female and 3 male weighing 8-10 kg each) were catheterized surgically with duodenal catheters. For each treatment, the dogs were given 0.4-2.4 mg/kg of leuprolide either in solution or incorporated in micelles. The treatments were administered via the duodenal catheter. For the positive control, the dogs were given a solution of free leuprolide by subcutaneous injection. Blood samples were collected from cephalic catheters or the jugular vein at 0, 15, 30, 45, 60, 90, 120, 240, 360, 480, and 1440 minutes following administration of leuprolide or controls. […] The time 0 blood collection was obtained approximately 10 minutes before administration of leuprolide formulations. The amount of leuprolide released into dog serum was determined by using a competitive enzyme-linked immunosorbent assay (ELISA) from Peninsula Laboratories, Inc. which utilizes goat anti-rabbit IgG for solid phase (microwell) immobilization. The test serum was allowed to react simultaneously with the coated antibody, rabbit anti-leuprolide and biotinylated leuprolide. After two-hour incubation at room temperature, unbound biotinylated peptide was removed by washing, and streptavidin-conjugated horseradish peroxidase (SA-HRP) was added and allowed to bind the immobilized rabbit anti-leuprolide/biotinylated leuprolide complex. After washing away excess SA-HRP, 3,3′5,5′-Tetramethylbenzidine dihydrochloride (B) was added and incubated for 15 minutes, resulting in the development of a blue color. The addition of stop solution stops the reaction and converts the color to yellow. Leuprolide in the samples was quantified by non-linear regression analysis of the standard curve and sample optical density values. Pharmacokinetic parameters are calculated using a pharmacokinetic software with a noncompartmental model.
Series [4] can be described thus: Bioavailability of hGH following intraduodenal administration in rats (plasma hGH by ELISA). The format is in vivo, Sprague-Dawley rats. Conditions: 600 micrograms hGH, FIG. 1. From the text: Each group of rats, 3-5 animals per group, received 600 micrograms of human growth hormone in Acconon CC-12 reverse micelle formulation or control formulations consisting of aqueous growth hormone or Acconon CC-12 water reverse micelle. Blood samples were obtained from the jugular catheter at the indicated times after administration. Plasma samples were obtained from the collected blood specimens and analyzed for the presence of hGH by an enzyme-linked immunosorbent assay (ELISA) (Alexon-Trend, BioCheck). The assay system utilizes polyclonal sheep anti-hGH for solid phase (microwells) immobilization, and mouse monoclonal anti-hGH in the antibody-enzyme (horseradish peroxidase) conjugate solution. […] After a 45-minute incubation at room temperature, the sample well was washed to remove unbound enzyme labeled antibody. […] The intensity of the yellow color is directly proportional to the concentration of hGH in the sample.

In the series “in vivo [1]”, `CC(C)C[C@H](NC(=O)CNC(=O)[C@H](Cc1ccc(O)cc1)NC(=O)[C@H](CO)NC(=O)[C@H](Cc1c[nH]c2ccccc12)NC(=O)[C@H](Cc1cnc[nH]1)NC(=O)[C@@H]1CCC(=O)N1)C(=O)N[C@@H](CCCNC(=N)N)C(=O)N1CCC[C@H]1C(=O)NCC(N)=O` [LHRH solution] showed an AUC(0-inf) of 31.5 ng·h/mL, a Cmax of 79 ± 51.2 ng/mL and a bioavailability of 100%.
As for `CCNC(=O)[C@@H]1CCCN1C(=O)[C@H](CCCNC(=N)N)NC(=O)[C@H](CC(C)C)NC(=O)[C@@H](CC(C)C)NC(=O)[C@H](Cc1ccc(O)cc1)NC(=O)[C@H](CO)NC(=O)[C@H](Cc1c[nH]c2ccccc12)NC(=O)[C@H](Cc1c[nH]cn1)NC(=O)[C@@H]1CCC(=O)N1` [Leuprolide solution, p-Glu-His-Trp-Ser-Tyr-D-Leu-Leu-Arg-Pro-NHC2H5], the bioavailability in the series “in vivo [2]” is approximately 0.2%; in “in vivo [2]” (2.4 mg/kg), 0.23 ± 0.12%; in “in vivo [2]” (sc, 0.4 mg/kg) it was 100%; in “in vivo [3]”, 100%. For the same molecule, the AUC(0-inf) in the series “in vivo [2]” (2.4 mg/kg) was 5.43 ng·h/mL; in “in vivo [2]” (sc, 0.4 mg/kg), 397 ng·h/mL; in the series “in vivo [3]”, 905 ng·h/mL. Also, the Cmax was determined as 6.3 ± 5.3 ng/mL in “in vivo [2]” (2.4 mg/kg); 453 ± 94 ng/mL in the series “in vivo [2]” (sc, 0.4 mg/kg); 412 ± 163 ng/mL in “in vivo [3]”.
Turning to “aqueous growth hormone: purified human growth hormone dissolved in water, control formulation”, the “absorption of hGH” value in series [4] was “little to no absorption”.

A word on the AUC(0-inf): it is total exposure, with the tail of the curve extrapolated. The term Cmax denotes the peak of the concentration-time curve. One may read the bioavailability as dose-corrected exposure relative to a reference, in per cent.
